The values that follow come from ChEMBL document CHEMBL1157092, “Jacaranone-derived glucosidic esters from Jacaranda glabra and their activity against Plasmodium falciparum” (J Nat Prod, 2010).

Converted amounts (≈) assume the structure as drawn.

In one assay the test system is Plasmodium falciparum. As to the kind of experiment: Antiplasmodial activity against chloroquine and pyrimethamine-resistant Plasmodium falciparum K1 infected in human erythrocytes after 48 hrs by [3]H-hypoxanthine incorporation assay. It is filed as functional, organism-based. The note with it: K1, 48 h.
The next assay has as its system L6. Kind of assay: Cytotoxicity against rat L6 cells after 72 hrs by alamar blue assay. The class given is cell-based. The note with it: L6, 72 h. On the technique in general: Alamar Blue is a resazurin reagent that responds to reducing activity.

The IC50 is the point on the concentration scale where inhibition reaches its midpoint. Low readings indicate greater potency, high ones weaker potency. For `O=C1C=CC(O)(CC(=O)OC[C@H]2O[C@@H](OC(=O)CC3(O)C=CC(=O)C=C3)[C@H](OC(=O)Cc3ccccc3)[C@@H](O)[C@@H]2O)C=C1` [JACAGLABROSIDE B], the IC50 in the assay with Plasmodium falciparum was 0.56 µg/mL (≈ 0.936 µM); in the assay on L6 it was > 90 µg/mL.

As to `O=C1C=CC(O)(CC(=O)OC[C@H]2O[C@@H](OC(=O)CC3(O)C=CC(=O)C=C3)[C@H](OC(=O)Cc3ccc(O)cc3)[C@@H](OC(=O)Cc3ccccc3)[C@@H]2O)C=C1` [JACAGLABROSIDE C], the IC50 in the assay with Plasmodium falciparum came to 0.56 µg/mL (≈ 0.764 µM); with L6 it was 87 µg/mL (≈ 119 µM).

Consider `O=C1C=CC(O)(CC(=O)OC[C@H]2O[C@@H](OC(=O)CC3(O)C=CC(=O)C=C3)[C@H](OC(=O)Cc3ccccc3)[C@@H](OC(=O)Cc3ccccc3)[C@@H]2O)C=C1` [JACAGLABROSIDE A], for which the IC50 worked out at 1.02 µg/mL (≈ 1.42 µM) with Plasmodium falciparum and 8.3 µg/mL (≈ 11.6 µM) in the assay with L6.

On to `O=C1C=CC(O)(CC(=O)OC[C@H]2O[C@@H](OC(=O)CC3(O)C=CC(=O)C=C3)[C@H](OC(=O)Cc3ccccc3)[C@@H](OC(=O)Cc3ccc(O)cc3)[C@@H]2O)C=C1` [JACAGLABROSIDE D], for which the IC50 with Plasmodium falciparum is 0.55 µg/mL (≈ 0.751 µM); in the assay with L6 it was 84.8 µg/mL (≈ 116 µM).

`O=C(O)Cc1ccccc1` [PHENYLACETIC ACID]: the IC50 was > 5 µg/mL with Plasmodium falciparum and > 90 µg/mL in the assay with L6.

Regarding `COC(=O)CC1(O)C=CC(=O)C=C1` [JACARANONE], the half-inhibitory concentration (IC50) with Plasmodium falciparum stood at 1.32 µg/mL (≈ 7.25 µM); in the assay on L6 it was 1.06 µg/mL (≈ 5.82 µM).
